Each compound was assayed against C-Raf FL (Homo sapiens (Human), UniProt P04049, Y340E/Y341E) (assay: In vitro Raf activity determination (Alpha Screen, phospho-MEK), C-Raf FL (full length, Y340E/Y341E)). Details: ATP 1 μM; 60 min pre-incubation; 1 hour reaction; column head does not say FL or TR.
Format: biochemical
Source text: The activity of a compound according to the present invention can be assessed by well-known in vitro & in vivo methods. Raf inhibition data provided herein was obtained using the following procedures.
Sf9 cells co-expressing both proteins were lysed and subjected to immobilized nickel chromatography and eluted with Imidazole. A second column (StrepII binding column) was used and eluted with desthiobiotin. Protein Tags were removed using Prescission enzyme and the protein was further purified using a flowthrough step to remove tags.
C-Raf TR refers to a truncated C-Raf protein, a Δ1-324 deletion mutant. C-Raf FL refers to the full-length C-Raf protein.
Full length MEK1 with an inactivating K97R ATP binding site mutation is utilized as a RAF substrate. The MEK1 cDNA was subcloned with an N-terminal (his)6 tag into a vector for E. Coli expression. The MEK1 substrate was purified from E. Coli lysate by nickel affinity chromatography followed by anion exchange. The final MEK1 preparation was biotinylated (Pierce EZ-Link Sulfo-NHS-LC-Biotin) and concentrated.
Assay protocol: Raf and biotinylated Mek (kinase dead) were combined at 2× final concentrations in assay buffer (50 mM Tris, pH 7.5, 15 mM MgCl2, 0.01% BSA and 1 mM DTT) and dispensed […] per well in assay plates (Greiner white 384 well assay plates #781207) containing […] of 40× of a Raf kinase inhibitor test compound diluted in 100% DMSO. The plate was incubated for 60 minutes at room temperature. […] The reactions were stopped and the phosphorylated product was measured using a rabbit anti-p-MEK (Cell Signaling, #9121) antibody and the Alpha Screen IgG (ProteinA) detection Kit (PerkinElmer #6760617R), by the addition of […] to the well of a mixture of the antibody (1:2000 dilution) and detection beads (1:2000 dilution of both beads) in Stop/bead buffer (25 mM EDTA, 50 mM Tris, pH 7.5, 0.01% Tween20). The additions were carried out under dark conditions to protect the detection beads from light. A lid was placed on top of the plate and incubated for 1 hour at room temperature, after which the luminescence was read on a PerkinElmer Envision instrument. The concentration of each compound for 50% inhibition (IC50) was calculated by non-linear regression using XL Fit data analysis software.

Sequence of C-Raf FL (P04049 whole entry Y340E/Y341E): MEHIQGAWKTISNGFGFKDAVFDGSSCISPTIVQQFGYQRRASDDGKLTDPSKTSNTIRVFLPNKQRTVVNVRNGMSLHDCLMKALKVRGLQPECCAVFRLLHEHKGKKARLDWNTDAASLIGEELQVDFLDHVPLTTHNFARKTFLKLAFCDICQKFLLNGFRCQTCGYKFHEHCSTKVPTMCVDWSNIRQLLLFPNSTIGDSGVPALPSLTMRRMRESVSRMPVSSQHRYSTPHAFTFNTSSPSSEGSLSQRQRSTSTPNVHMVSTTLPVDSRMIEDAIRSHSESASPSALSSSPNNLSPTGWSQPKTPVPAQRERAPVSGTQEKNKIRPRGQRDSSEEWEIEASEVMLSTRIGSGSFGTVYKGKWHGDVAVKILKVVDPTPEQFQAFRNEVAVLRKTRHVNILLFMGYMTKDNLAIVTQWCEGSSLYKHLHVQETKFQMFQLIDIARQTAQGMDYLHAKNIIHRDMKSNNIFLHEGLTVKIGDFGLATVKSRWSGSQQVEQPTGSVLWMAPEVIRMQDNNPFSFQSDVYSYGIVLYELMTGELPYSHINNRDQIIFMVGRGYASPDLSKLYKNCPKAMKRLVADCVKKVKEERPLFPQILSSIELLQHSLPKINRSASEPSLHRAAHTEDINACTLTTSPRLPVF
Sequence of C-Raf FL (P63104 whole entry partner): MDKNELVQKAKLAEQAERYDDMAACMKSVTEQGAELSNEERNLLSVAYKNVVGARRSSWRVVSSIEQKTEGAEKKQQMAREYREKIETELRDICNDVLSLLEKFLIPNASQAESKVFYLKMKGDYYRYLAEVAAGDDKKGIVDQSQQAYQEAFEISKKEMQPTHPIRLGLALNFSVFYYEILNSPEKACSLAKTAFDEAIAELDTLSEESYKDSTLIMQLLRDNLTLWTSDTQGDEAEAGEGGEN

| IC50 | Compound |
| --- | --- |
| 20 pM | Cc1ccc(NC(=O)c2cc(C(F)(F)F)ccn2)cc1-c1cc2c(c(C3CCOCC3)c1)NC(=O)C(C)(CO)O2 (single isomer, unassigned) [Example 193, N-(3-(2-(hydroxymethyl)-2-methyl-3-oxo-5-(tetrahydro-2H-pyran-4-yl)-3,4-dihydro-2H-benzo [b][1,4]oxazin-7-yl)-4-methylphenyl)-4-(trifluoromethyl) picolinamide carboxamide] |
| 70 pM | Cc1ccc(NC(=O)c2cc(C(F)(F)F)ccn2)cc1-c1cc2c(c(C3CCOCC3)c1)NC(=O)C(C)(CO)O2 (single isomer, unassigned) [Example 194, N-(3-(2-(hydroxymethyl)-2-methyl-3-oxo-5-(tetrahydro-2H-pyran-4-yl)-3,4-dihydro-2H-benzo [b][1,4]oxazin-7-yl)-4-methylphenyl)-4-(trifluoromethyl) picolinamide carboxamide] |
| 700 pM | Cc1ccc(NC(=O)c2cc(C(F)(F)F)ccn2)cc1-c1cc(OCCO)nc(C2CCOCC2O)c1 (single isomer, unassigned) [Example 248] |
| 1000 pM | Cc1ccc(NC(=O)c2ccnc(C(F)(F)F)c2)cc1-c1cc(OCCO)nc(C2CCOCC2O)c1 (single isomer, unassigned) [Example 250] |
| 1000 pM | Cc1ncc(NC(=O)c2ccnc(C(C)(C)F)c2)cc1-c1cccc(C2COC2)c1 [Example 1, 2-(2-fluoropropan-2-yl)-N-(6-methyl-5-(3-(oxetan-3-yl)phenyl)pyridin-3-yl)isonicotinamide] |
| 700 pM | Cc1ccc(NC(=O)c2cccc(C(F)(F)F)c2)cc1-c1cccc(C2COC2)c1 [Example 2, N-(6-methyl-3′-(oxetan-3-yl)-[1,1′-biphenyl]-3-yl)-3-(trifluoromethyl)benzamide] |
| 500 pM | CCOc1ncc(-c2cc(NC(=O)c3ccnc(C(C)(C)F)c3)cnc2C)cc1C1(C)COC1 [Example 3, N-(6′-ethoxy-2-methyl-5′-(3-methyloxetan-3-yl)-[3,3′-bipyridin]-5-yl)-2-(2-fluoropropan-2-yl)isonicotinamide] |
| 3000 pM | Cc1ccc(NC(=O)c2cccc(C(F)(F)F)c2)cc1-c1cn(C)c(=O)c(C2COC2)n1 [Example 4, N-(4-methyl-3-(4-methyl-6-(oxetan-3-yl)-5-oxo-4,5-dihydropyrazin-2-yl)phenyl)-3-(trifluoromethyl)benzamide] |
| 2000 pM | Cc1ccc(NC(=O)c2ccc(CN)c(C(F)(F)F)c2)cc1-c1cccc(C2COC2)c1 [Example 5, 4-(aminomethyl)-N-(6-methyl-3′-(oxetan-3-yl)-[1,1′-biphenyl]-3-yl)-3-(trifluoromethyl)benzamide] |
| 300 pM | Cc1ccc(NC(=O)c2cccc(C(F)(F)F)c2)cc1-c1cc(C2COC2)c2nccn2n1 [Example 6, N-(4-methyl-3-(8-(oxetan-3-yl)imidazo[1,2-b]pyridazin-6-yl)phenyl)-3-(trifluoromethyl)benzamide] |
| 1000 pM | Cc1ncc(NC(=O)c2ccc(CO)c(C(F)(F)F)c2)cc1-c1cccc(C2COC2)c1 [Example 7] |
| 1000 pM | Cc1ncc(NC(=O)c2ccc(CN)c(C(F)(F)F)c2)cc1-c1cccc(C2(C)COC2)c1 [Example 8] |
| 300 pM | Cc1ncc(NC(=O)c2cccc(C(F)(F)F)c2)cc1-c1cc(C2COC2)c2nccn2n1 [Example 9, N-(6-methyl-5-(8-(oxetan-3-yl)imidazo[1,2-b]pyridazin-6-yl)pyridin-3-yl)-3-(trifluoromethyl)benzamide] |
| 2000 pM | Cc1ncc(NC(=O)c2ccc(CN)c(C(F)(F)F)c2)cc1-c1cc(C2COC2)c2nccn2n1 [Example 10, 4-(aminomethyl)-N-(6-methyl-5-(8-(oxetan-3-yl)imidazo[1,2-b]pyridazin-6-yl)pyridin-3-yl)-3-(trifluoromethyl)benzamide] |
| 600 pM | Cc1ncc(NC(=O)c2cccc(C(F)(F)F)c2)cc1-c1cc(C2(C)COC2)c(OC2CCOCC2)nn1 [Example 11] |

Source: patent US10167279B2 (NOVARTIS AG, priority 2014, dated 2019)
